The results in this text go back to US20180200279A1, “INHIBITION OF HSV-1-ASSOCIATED CORNEAL NEOVASCULARIZATION USING INHIBITORS OF CYCLIN-DEPENDENT KINASE 9” (XAVIER UNIVERSITY OF LOUISIANA, priority 2014, published 2018).

The test system of test [1] is corneal neovascularization due to alkali burn. Briefly: Corneal neovascularization due to chemical (NaOH) burn in mice. The test is classed as in vivo, Balb C mice. The conditions noted are these: 0.01% FP 5× daily; four days post injury; 0.15N NaOH for 15 seconds. The protocol:
Following chemical treatment of mouse eyes with 0.15N NaOH, control and treated eyes were scored for neovascularization using the formula A=(C×0.4×L×pi)/2; where C=clock hours of neovascularization; 30° arc is 1 (360° L is the length of the longest neovessel, and A is the area of neovascularization. Animals were scored using a slit-lamp microscope, and images representative of each group were taken. One day post injury, flavopirodol reduced neovascularization to the level observed in undamaged and in damaged but prednisone-treated eyes.
To determine whether FP would reduce corneal neovascularization due to chemical injury in a mouse model system, female Balb C mice (7 per group) were treated in their right eyes with 0.15N NaOH for 15 seconds and the left eye was not treated with NaOH. […] Neovascularization was scored using the formula A=(C×0.4×L×pi)/2; where C=clock hours of neovascularization; 30° arc is 1 (360° L is the length of the longest neovessel, and A is the area of neovascularization. Animals were scored in a masked fashion using a slit-lamp microscope, and images representative of each group were taken. The longest possible length of a neovessel is 1.6 mm and the greatest possible arc is 12/12 hours.

The test system of test [2] is HUVEC. Description: Endothelial cell Matrigel transwell invasion assay. Type of test: cell-based, human. Conditions: 25 ng/mL VEGF and bFGF. The method, then:
After 12-16 hours, tubules were counted at low magnification and percentage of inhibition was expressed using VEGF control wells as 100%.
(§1) Migration/invasion assays were performed using 24-well, 8-μm pore size BD Biocoat Matrigel migration chambers according to the manufacturer's instructions (BD Biosciences, San Jose, Calif.). […] Cells were allowed to migrate for 16 hours at 37° C. Following incubation, cotton swabs were used to remove the cells on the top surface of the membrane, and cells on the bottom side of the membrane were fixed with 4% formaldehyde for 30 min, washed 3-5 times with PBS, and then stained with 10 μM Calcein AM (migration) or 10 μM Celltracker green-labeled (invasion). Migrating or invading cells from three repeats in two independent experiments were then counted using an inverted microscope. Data are expressed as mean percent migration and mean percent invading cells compared with untreated cells±SEM.
In addition to migration, new blood vessel formation requires that endothelial cells invade through extracellular matrix (ECM) surrounding the existing vasculature. Inhibition of invasion therefore inhibits angiogenesis. […] Celltracker green-labeled HUVEC that successfully degraded the Matrigel and crossed into the lower chamber containing 25 ng/mL VEGF and bFGF in the presence or absence of FP were counted and expressed as a percent of untreated control cells (FIG. 2B).

Test [3] relates to HUVEC. Briefly: Global transcription, BrU incorporation into RNA by flow cytometry. Conditions: serum-starved, PMA-treated HUVEC. Type of test: cell-based, human. A general note: In flow cytometry, cells or beads pass a laser one at a time.
Procedure: Vein endothelial cells (VEC) were activated with phorbol myristate acetate (PMA) and incubated with membrane-permeable 5-bromouridine (BrU) that incorporates into RNA transcribed during the incubation period. A commercially available antibody against 5-bromo-deoxy-uridine was then used to quantify BrU-containing RNA. Cells were analyzed by immunofluorescence staining (not shown) and by flow cytometry for the presence of incorporated BrU to quantify the level of global transcription. […] Additional controls include no antibody and no BrU.
To determine whether FP blocked transcription globally at concentrations at which it reduces angiogenesis in vitro, HUVEC were activated with phorbol myristate acetate (PMA) and incubated with membrane-permeable 5-bromouridine (BrU) that incorporates into RNA transcribed during the incubation period. A commercially available antibody against 5-bromo-deoxy-uridine was then used to quantify BrU-containing RNA. Cells were analyzed by immunofluorescence staining (not shown) and by flow cytometry for the presence of incorporated BrU to quantify the level of global transcription.
Additional controls include no antibody (-Ab) and no BrU (-BrU) (FIG. 5A).
The test system of test [4] is HUVEC. Description: Endothelial cell transwell migration assay. The test is classed as cell-based, human. The conditions noted are these: 16 hours. The method, then:
as §1
Cell migration induced by chemoattractant angiogenic factors such as bFGF and VEGF is an important step in the angiogenic process. […] Data presented as percent fluorescence normalized to control untreated cells (100% migration).

A further test deals with HSV-1. Description: In vitro viral inhibition (plaque) assay in CV-1 cells. The test is classed as cell-based. The protocol: Numbers of plaque-forming units (PFU) were determined in a standard plaque assay procedure using CV-1 cells.
The HSV-1 strain employed was 17 syn+. Before inoculation, numbers of plaque-forming units (PFU) were determined in a standard plaque assay procedure using CV-1 cells. Pooled primary human umbilical vein endothelial cells (HUVEC) were obtained from Lonza (Basel, Switzerland) and were cultured in Medium 199 (Life Technologies, Carlsbad, Calif.) supplemented with 20% heat-inactivated FBS, penicillin G (100 U/ml), streptomycin ([…]), 2 mM L-glutamine and 1:100 endothelial cell growth supplement (ECGS, BD Biosciences, Bedford, Mass.) on tissue culture plates coated with 0.2% gelatin up to passage 6. Cells were sub-passaged or harvested when they reached ˜80% confluence. For periods of serum-deprivation, HUVEC were incubated for 4 or 16 hours in serum-starvation medium (SSM) containing Medium 199 without phenol red or ECGS but containing 0.5% FBS unless otherwise indicated. In vitro viral inhibition assays with CV-1 cells were performed as previously described (Gong E Y. Methods for screening and profiling inhibitors of herpes simplex viruses. Methods Mol Biol. 1030:303-313. 2013).

Molecules are shown by their SMILES.

By IC50 is commonly meant the concentration that gives 50% inhibition.

Turning to `CN1CC[C@H](c2c(O)cc(O)c3c(=O)cc(-c4ccccc4Cl)oc23)[C@H](O)C1` [flavopiridol], in test [1], the “corneal neovascularization after alkali burn (slit-lamp area score)” value is “reduced neovascularization due to alkali burn to the level observed in undamaged and in damaged but prednisone-treated eyes”. The “invading cells as percent of untreated control” value in the test with HUVEC [2] (50 nM flavopiridol) is on record as 67.08%±6.50; with HUVEC [2] (100 nM flavopiridol), 59.74%±6.98; with HUVEC [2] (200 nM flavopiridol), 32.64%±8.58. In addition, the “BrU incorporation into RNA (total cellular transcription)” value in the test on HUVEC [3] (50 nM-300 nM FP) is “only slightly reduced”; with HUVEC [3] (600 nM-1 μM FP), “significantly (p<0.05 compared with untreated cells) reduced BrU incorporation into RNA”. The “percent migration normalized to untreated control cells (100%)” value in the test with HUVEC [4] (100 nM flavopiridol) is recorded as 74.99%±2.35; in the test on HUVEC [4] (150 nM flavopiridol), 25.08±1.79%. Besides, in the test with HSV-1, the “concentration at which HSV-1 replication was significantly inhibited” value is given as 250 nM. Besides, the IC50 in the test on HSV-1 (Human alphaherpesvirus 1, read-out: average IC50 of HSV-1 replication) came to 0.1 µM.
